# Tests used:
# [1] = system: rat model of cardiac arrest and cardiopulmonary resuscitation; experiment: Coronary perfusion pressure, defibrillations and arrhythmia in a rat model of cardiac arrest and CPR; assay type: in vivo, Sprague-Dawley rats; details: mean±SD
# Description: (§1) Male Sprague-Dawley rats weighing 450-550 g were utilized in this study. After induction of anesthesia with inhalation of CO2 for about 30 seconds, the animals were anesthetized by intraperitoneal injection of pentobarbital (45 mg/kg). Additional doses (10 mg/kg) were administered when required to maintain anesthesia. After no response to stimuli, the animals were shaved. The trachea was orally intubated with a 14-G cannula mounted on a blunt needle (Abbocath-T; Abbott Hospital Products Division, North Chicago, IL, USA) with a 145-degree angled tip. End-tidal CO2 was continuously monitored with a side-stream infrared CO2 analyzer (Capstar-100 Carbon Dioxide Analyzer; CWE, Ardmore, PA) interposed between the tracheal cannula and the ventilator. A conventional lead II EKG was continuously monitored. Through the left external jugular vein, a PE-50 catheter (Becton Dickinson, Sparks, MD, USA) was advanced into the right atrium for measurement of right atrial pressures. A 3-F catheter (Model C-PMS-301J; Cook Critical Care, Bloomington, IN, USA) was advanced through the right external jugular vein into the right ventricle. For blood pressure measurements within the descending aorta and PEG-20k administration, PE-50 catheters were advanced into the descending aorta from the left femoral artery and the right femoral artery respectively. […]
# [2] = system: rat model of cardiac arrest and cardiopulmonary resuscitation; experiment: Buccal microcirculation (MFI, PVD) by side-stream dark-field imaging; assay type: in vivo, Sprague-Dawley rats; details: 1, 3, and 5 hours after ROSC; PEG-20k vs other 3 groups; p<0.05; FIG. 3
# Description: as §1
# [3] = system: rat model of cardiac arrest and cardiopulmonary resuscitation; experiment: Duration of survival after resuscitation; assay type: in vivo, Sprague-Dawley rats; details: 6 resuscitated rats in each group
# [4] = system: rat model of cardiac arrest and cardiopulmonary resuscitation; experiment: Post-resuscitation myocardial function by echocardiography (CO, EF, MPI); assay type: in vivo, Sprague-Dawley rats; details: 2, 4, and 6 hours after ROSC; PEG-20k vs other 3 groups, epinephrine vs saline placebo and saline-A; p<0.05; FIG. 2
# Description: as §1
# patients with SCA = details: cited from earlier work
# [5] = system: patients with out-of-hospital cardiac arrest; details: prehospital epinephrine use; cited from earlier work
smiles,measurement,setting,value
CNC[C@H](O)c1ccc(O)c(O)c1 [Epinephrine],Arrhythmia duration,[1]; after resuscitation,14.00 ± 5.35
same,Number of defibrillations,"[1]; defibrillations required for conversion to viable rhythm and ROSC, drug infused for 3 minutes after 4 minutes of precordial compression",5.50 ± 2.88
same,Buccal microcirculation PVD and MFI values,[2],significantly decreased
same,Rats survived more than 24 hours,[3],one
same,"PR myocardial function (CO, EF, MPI)",[4],increased the severity of PR myocardial dysfunction
same,Rate of ROSC vs placebo,patients with SCA,significantly higher rate of ROSC than placebo
same,Rate of survival with a favorable neurologic outcome,patients with SCA; vs placebo group,as low as the rate in the placebo group
same,Chance of ROSC before hospital arrival,[5],increased chance of ROSC
same,Chance of survival and good functional outcomes 1 month after the event,[5],decreased chance of survival and good functional outcomes
